{
  "source": "paper PMC2742306",
  "about": "(Molecular cell, 2009)",
  "assay_type_in_all_cases": "biochemical, E. coli",
  "key": {"D320A DegS [1]": {"target": "T1, D320A DegS (Escherichia coli, UniProt P0AEE3, D320A)", "T1 sequence (P0AEE3 27-355 D320A)": "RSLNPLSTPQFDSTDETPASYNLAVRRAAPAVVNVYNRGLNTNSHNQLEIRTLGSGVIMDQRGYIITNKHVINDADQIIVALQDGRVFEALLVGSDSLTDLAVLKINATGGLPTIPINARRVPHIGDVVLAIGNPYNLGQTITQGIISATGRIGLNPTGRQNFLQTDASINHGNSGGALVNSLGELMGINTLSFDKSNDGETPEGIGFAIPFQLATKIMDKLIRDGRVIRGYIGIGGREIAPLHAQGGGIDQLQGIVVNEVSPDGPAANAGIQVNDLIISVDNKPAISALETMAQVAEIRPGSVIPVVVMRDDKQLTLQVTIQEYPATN", "experiment": "Global fit to MWC allosteric model, D320A DegS"}, "wild-type DegS [2]": {"target": "T2, wild-type DegS (Escherichia coli, UniProt P0AEE3)", "T2 sequence (P0AEE3 27-355)": "as the sequence (P0AEE3 27-355 D320A) above, with A294D counted along it", "conditions": "wild-type DegS 0.5 μM trimer, YYF 300 μM"}, "[3]": {"target": "T3, K243D/M319A double mutant of DegS (Escherichia coli, UniProt P0AEE3, K243D/M319A)", "T3 sequence (P0AEE3 27-355 K243D/M319A)": "as the sequence (P0AEE3 27-355 D320A) above, with K217D, M293A, A294D counted along it", "experiment": "OMP-peptide activation of RseA cleavage by K243D/M319A DegS"}, "wild-type DegS [4]": {"target": "T2, wild-type DegS", "experiment": "OMP-peptide activation of RseA cleavage by wild-type DegS"}, "wild-type DegS [5]": {"target": "T2, wild-type DegS"}, "M319A DegS [6]": {"target": "T4, M319A DegS (Escherichia coli, UniProt P0AEE3, M319A)", "T4 sequence (P0AEE3 27-355 M319A)": "as the sequence (P0AEE3 27-355 D320A) above, with M293A, A294D counted along it", "experiment": "Global fit to MWC allosteric model, M319A DegS"}, "wild-type DegS [7]": {"target": "T2, wild-type DegS", "conditions": "wild-type DegS 0.9 μM trimer; 20 μM rhodamine-FP; saturating peptide"}, "D320A DegS [8]": {"target": "T1, D320A DegS"}, "K243D mutant of DegS [9]": {"target": "T5, K243D mutant of DegS (Escherichia coli, UniProt P0AEE3, K243D)", "T5 sequence (P0AEE3 27-355 K243D)": "as the sequence (P0AEE3 27-355 D320A) above, with K217D, A294D counted along it"}, "K243D mutant of DegS [10]": {"target": "T5, K243D mutant of DegS", "experiment": "OMP-peptide activation of RseA cleavage by K243D DegS"}, "K243D mutant of DegS [11]": {"target": "T5, K243D mutant of DegS", "experiment": "Global fit to MWC allosteric model, K243D DegS"}, "[12]": {"target": "T3, K243D/M319A double mutant of DegS", "conditions": "saturating peptide"}, "D320A DegS [13]": {"target": "T1, D320A DegS", "experiment": "OMP-peptide activation of RseA cleavage by D320A DegS"}, "M319A DegS [14]": {"target": "T4, M319A DegS", "experiment": "OMP-peptide activation of RseA cleavage by M319A DegS"}, "[15]": {"target": "T3, K243D/M319A double mutant of DegS", "experiment": "Global fit to MWC allosteric model, K243D/M319A DegS"}, "[16]": {"conditions": "D320A, MWC global fit, RseA, not peptide, binding"}, "[17]": {"conditions": "M319A, MWC global fit, RseA, not peptide, binding"}, "[18]": {"conditions": "K243D, MWC global fit, RseA, not peptide, binding"}},
  "note": "Residues, ends and D or L forms follow the SMILES beside them.",
  "data": [
    {"smiles": "N[C@@H](Cc1ccc(O)cc1)C(=O)N[C@@H](Cc1ccc(O)cc1)C(=O)N[C@@H](Cc1ccccc1)C(=O)O", "note": "[YYF] (H-Tyr-Tyr-Phe-OH)", "values": [
      {"measurement": "reduction of (KTP/KRP)^3 relative to wild-type", "setting": "D320A DegS [1]; D320A (range given for K243D and D320A together), MWC model", "result": "30–70 fold"},
      {"measurement": "KRS, dissociation constant of RseA substrate for R-state subunit", "setting": "D320A DegS [1]; [16]", "result": 150, "unit": "µM"},
      {"measurement": "KTS, dissociation constant of RseA substrate for T-state subunit", "setting": "D320A DegS [1]; [16]", "result": 505, "unit": "µM"},
      {"measurement": "L0, equilibrium constant T/R of unliganded enzyme", "setting": "D320A DegS [1]; D320A, MWC global fit, enzyme parameter, peptide-independent", "result": 350},
      {"measurement": "KTP/KRP", "setting": "D320A DegS [1]; D320A, MWC global fit, peptide preference for relaxed state", "result": 4.1},
      {"measurement": "kr, rate constant for cleavage of RseA by substrate-bound R-state subunits", "setting": "D320A DegS [1]; D320A, MWC global fit, same value for all enzymes and peptides", "result": 3.3, "unit": "s⁻¹"},
      {"measurement": "enzymes in active conformation", "setting": "D320A DegS [1]; D320A, saturating peptide and RseA, MWC model", "result": "about 85%"},
      {"measurement": "Hill Constant (RseA substrate)", "setting": "wild-type DegS [2]", "result": "1.4 ± 0.2"},
      {"measurement": "Vmax (RseA cleavage)", "setting": "wild-type DegS [2]; 23 °C, pH 8.3", "result": "2.6 ± 0.2", "unit": "s^−1enz^−1"},
      {"measurement": "EC50", "setting": "[3]", "result": "0.7 ± 0.2", "unit": "µM"},
      {"measurement": "Hill Constant (peptide activation)", "setting": "[3]; K243D/M319A, 200 μM RseA", "result": "1.2 ± 0.1"},
      {"measurement": "Maximum Activity (RseA cleavage)", "setting": "[3]; K243D/M319A, 200 μM RseA, 23 °C, pH 8.3, average of two or more determinations", "result": "2700 ± 400", "unit": "M⁻¹ s⁻¹"},
      {"measurement": "EC50", "setting": "wild-type DegS [4]", "result": "29 ± 3", "unit": "µM"},
      {"measurement": "displacement in concentration between YYF and YQF activation curves", "setting": "wild-type DegS [4]; wild-type DegS", "result": "~10", "unit": "fold"},
      {"measurement": "Hill Constant (peptide activation)", "setting": "wild-type DegS [4]; wild-type DegS, 200 μM RseA", "result": "1.7 ± 0.1"},
      {"measurement": "L0, equilibrium constant T/R of unliganded enzyme", "setting": "wild-type DegS [5]; MWC global fit, enzyme parameter, peptide-independent", "result": 15000},
      {"measurement": "KTP/KRP", "setting": "wild-type DegS [5]; MWC global fit, peptide preference for relaxed state", "result": 12.3},
      {"measurement": "kr, rate constant for cleavage of RseA by substrate-bound R-state subunits", "setting": "wild-type DegS [5]; MWC global fit, same value for all enzymes and peptides", "result": 3.3, "unit": "s⁻¹"},
      {"measurement": "DegS molecules in active conformation", "setting": "wild-type DegS [5]; saturating peptide and saturating RseA substrate, MWC model", "result": 83, "unit": "%"},
      {"measurement": "KRS, dissociation constant of RseA substrate for R-state subunit", "setting": "M319A DegS [6]; [17]", "result": 150, "unit": "µM"},
      {"measurement": "KTS, dissociation constant of RseA substrate for T-state subunit", "setting": "M319A DegS [6]; [17]", "result": 505, "unit": "µM"},
      {"measurement": "L0, equilibrium constant T/R of unliganded enzyme", "setting": "M319A DegS [6]; M319A, MWC global fit, enzyme parameter, peptide-independent", "result": 5500},
      {"measurement": "KTP/KRP", "setting": "M319A DegS [6]; M319A, MWC global fit, peptide preference for relaxed state", "result": 2.7},
      {"measurement": "kr, rate constant for cleavage of RseA by substrate-bound R-state subunits", "setting": "M319A DegS [6]; M319A, MWC global fit, same value for all enzymes and peptides", "result": 3.3, "unit": "s⁻¹"},
      {"measurement": "reduction of (KTP/KRP)^3 relative to wild-type", "setting": "M319A DegS [6]; M319A, MWC model", "result": "~100", "unit": "fold"},
      {"measurement": "enzymes in active conformation", "setting": "M319A DegS [6]; M319A, saturating peptide and substrate, MWC model", "result": "about 10%"},
      {"measurement": "tighter binding to tense M319A than to tense wild-type DegS", "setting": "M319A DegS [6]; MWC modeling", "result": "about 20 fold"},
      {"measurement": "rate of rhodamine-FP modification in presence of peptide (order)", "setting": "wild-type DegS [7]", "result": "fastest"},
      {"measurement": "Vmax (RseA cleavage)", "setting": "D320A DegS [8]; D320A 0.3 μM trimer, saturating peptide (DNRDGNVYYF 30 μM), 23 °C, pH 8.3", "result": "3.1 ± 0.3", "unit": "s^−1enz^−1"},
      {"measurement": "Vmax relative to wild-type DegS", "setting": "D320A DegS [8]; D320A, saturating YYF", "result": "roughly within error for wild-type and the mutants"},
      {"measurement": "Hill Constant (RseA substrate)", "setting": "D320A DegS [8]; D320A, saturating peptide", "result": "1.2 ± 0.1"},
      {"measurement": "Vmax (RseA cleavage)", "setting": "K243D mutant of DegS [9]; K243D 0.3 μM trimer, saturating peptide (DNRDGNVYYF 30 μM), 23 °C, pH 8.3", "result": "2.3 ± 0.1", "unit": "s^−1enz^−1"},
      {"measurement": "Vmax relative to wild-type DegS", "setting": "K243D mutant of DegS [9]; K243D, saturating YYF", "result": "roughly within error for wild-type and the mutants"},
      {"measurement": "Hill Constant (RseA substrate)", "setting": "K243D mutant of DegS [9]; K243D, saturating peptide", "result": "1.3 ± 0.1"},
      {"measurement": "EC50", "setting": "K243D mutant of DegS [10]", "result": "6.4 ± 1.6", "unit": "µM"},
      {"measurement": "Hill Constant (peptide activation)", "setting": "K243D mutant of DegS [10]; K243D, 200 μM RseA", "result": "1.4 ± 0.2"},
      {"measurement": "activation relative to wild-type DegS", "setting": "K243D mutant of DegS [10]; K243D, single substrate concentration", "result": "only marginally better than wild-type DegS"},
      {"measurement": "reduction of (KTP/KRP)^3 relative to wild-type", "setting": "K243D mutant of DegS [11]; K243D (range given for K243D and D320A together), MWC model", "result": "30–70 fold"},
      {"measurement": "KRS, dissociation constant of RseA substrate for R-state subunit", "setting": "K243D mutant of DegS [11]; [18]", "result": 150, "unit": "µM"},
      {"measurement": "KTS, dissociation constant of RseA substrate for T-state subunit", "setting": "K243D mutant of DegS [11]; [18]", "result": 505, "unit": "µM"},
      {"measurement": "L0, equilibrium constant T/R of unliganded enzyme", "setting": "K243D mutant of DegS [11]; K243D, MWC global fit, enzyme parameter, peptide-independent", "result": 180},
      {"measurement": "KTP/KRP", "setting": "K243D mutant of DegS [11]; K243D, MWC global fit, peptide preference for relaxed state", "result": 3.0},
      {"measurement": "kr, rate constant for cleavage of RseA by substrate-bound R-state subunits", "setting": "K243D mutant of DegS [11]; K243D, MWC global fit, same value for all enzymes and peptides", "result": 3.3, "unit": "s⁻¹"},
      {"measurement": "enzymes in active conformation", "setting": "K243D mutant of DegS [11]; K243D, saturating peptide and RseA, MWC model", "result": "about 85%"},
      {"measurement": "Hill Constant (RseA substrate)", "setting": "[12]", "result": "1.2 ± 0.1"},
      {"measurement": "Vmax (RseA cleavage)", "setting": "[12]; 23 °C, pH 8.3", "result": "2.1 ± 0.2", "unit": "s^−1enz^−1"},
      {"measurement": "EC50", "setting": "D320A DegS [13]", "result": "4.8 ± 1.2", "unit": "µM"},
      {"measurement": "Hill Constant (peptide activation)", "setting": "D320A DegS [13]; D320A, 200 μM RseA", "result": "1.4 ± 0.1"},
      {"measurement": "activation relative to wild-type DegS", "setting": "D320A DegS [13]; D320A, single substrate concentration", "result": "only marginally better than wild-type DegS"},
      {"measurement": "EC50", "setting": "M319A DegS [14]", "result": "3.2 ± 0.4", "unit": "µM"},
      {"measurement": "Hill Constant (peptide activation)", "setting": "M319A DegS [14]; M319A, 200 μM RseA", "result": "1.1 ± 0.1"},
      {"measurement": "Maximum Activity (RseA cleavage)", "setting": "M319A DegS [14]; M319A, 200 μM RseA, 23 °C, pH 8.3, average of two or more determinations", "result": "120 ± 20", "unit": "M⁻¹ s⁻¹"},
      {"measurement": "decrease of half-maximal activation concentration relative to wild-type DegS", "setting": "M319A DegS [14]; M319A, lower than wild-type", "result": 10, "unit": "fold"},
      {"measurement": "decrease of peptide-activated activity relative to wild-type DegS", "setting": "M319A DegS [14]; M319A, saturating YYF, lower than wild-type value", "result": 20, "unit": "fold"},
      {"measurement": "KRS, dissociation constant of RseA substrate for R-state subunit", "setting": "[15]; RseA, not peptide, binding", "result": 150, "unit": "µM"},
      {"measurement": "KTS, dissociation constant of RseA substrate for T-state subunit", "setting": "[15]; RseA, not peptide, binding", "result": 505, "unit": "µM"},
      {"measurement": "L0, equilibrium constant T/R of unliganded enzyme", "setting": "[15]; enzyme parameter, peptide-independent", "result": 90},
      {"measurement": "KTP/KRP", "setting": "[15]; peptide preference for relaxed state", "result": 2.1},
      {"measurement": "kr, rate constant for cleavage of RseA by substrate-bound R-state subunits", "setting": "[15]; same value for all enzymes and peptides", "result": 3.3, "unit": "s⁻¹"}
    ]}
  ]
}
